Reference: patent US20260070929A1, “METHODS AND COMPOSITIONS FOR MODULATING KRAS(G12D)” (Ranok Therapeutics (Hangzhou) Co. LTD., priority 2022, published 2026)

Legend:
KRAS(G12D)/SOS1 = biological target: T1, KRAS(G12D)/SOS1 (Homo sapiens, UniProt P01116, G12D); test: KRAS(G12D)/SOS1 homogeneous time-resolved fluorescence (HTRF) assay; assay type: binding; conditions: absence of GTP; 4° C., 3 hr
T1 construct: purchased Cisbio 63ADK000CB17PEH
Experimental: Binding of test compounds to KRAS(G12D) target protein, which in turn blocks KRAS(G12D) interaction with the SOS1 protein, was measured in the absences of GTP by homogeneous time-resolved fluorescence using the KRAS-G12D/SOS1 Binding Assay Kit (Cisbio, 63ADK000CB17PEH), following the manufacturer's instructions, except as noted. 3-fold serial dilutions of each test compound were prepared ranging from 20 µM to 1.02 nM. The test compound was mixed and incubated with reaction components, incubated in a sealed plate at 4° C. for 3 hr and fluorescence was measured using a PerkinElmer Envision plate reader. The KRAS(G12D)-SOS1 IC50 values (the concentration of 50% of the maximal inhibition) were calculated using GraphPad Prism 7 software.

[1] = test system: AGS gastric carcinoma cells [heterozygous G12D]; test: Cancer cell line proliferation (CellTiter-Glo), AGS; assay type: cell-based; conditions: Homo sapiens, 72 hr treatment, read-out: AGS CTG (EC50)
Experimental: (§1) The following cancer cell lines were employed: AGS gastric carcinoma [heterozygous G12D](ATCC, CRL-1739); A-427 lung carcinoma [heterozygous G12D](ATCC, HTB-53); ASPC1 pancreatic adenocarcinoma [homozygous G12D](ATCC, CRL-1682) and SW1990 pancreatic adenocarcinoma [homozygous G12D](ATCC CRL-2172). Cell lines were cultured essentially according to ATCC recommendations.
(§2) AGS, A-427, ASPC1, SW1990, and GP2D cells were plated in 96-well tissue culture plates at 4,000 cells/well and incubated at 37° C./5% CO2 for 72 hr in 100 μl of media. 3-fold serial dilutions of each test compound were prepared ranging from 20 μM to 1.02 nM. Each cell line was then treated with test compounds at various concentrations with a final concentration of 0.5% DMSO/well, and then incubated at 37° C./5% CO2 for 72 hr. 100 µl of CellTiter-Glo® Reagent (Promega Corporation, Madison, WI) was added to each well and processed according manufacturer's protocol. Results were analyzed and EC50 values were calculated in GraphPad 7 software.

[2] = test system: A-427 lung carcinoma cells [heterozygous G12D]; test: Cancer cell line proliferation (CellTiter-Glo), A-427; assay type: cell-based; conditions: Homo sapiens, A-427 cells, 72 hr treatment, read-out: A427 CTG (EC50)
Experimental: as §1, §2

T1 sequence (P01116 1-188 isoform P01116-2 G12D): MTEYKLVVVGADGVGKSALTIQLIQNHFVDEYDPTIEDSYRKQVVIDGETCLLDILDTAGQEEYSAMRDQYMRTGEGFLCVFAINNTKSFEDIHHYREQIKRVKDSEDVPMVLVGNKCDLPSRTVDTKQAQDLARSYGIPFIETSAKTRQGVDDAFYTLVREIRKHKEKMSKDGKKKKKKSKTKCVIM

SMILES	IC50 (KRAS(G12D)/SOS1)	EC50 [1]	EC50 [2]
C#Cc1cccc2cccc(-c3ncc4c(N5CC6CCC(C5)N6)nc(OCC5(CN6CCN(C(=O)C7CCN(Cc8ccc9c(c8)CN(C(=O)c8cc(C(C)C)c(O)cc8O)C9)CC7)CC6)CC5)nc4c3F)c12 [Compound 46]	< 100 nM		
CCNC(=O)c1nnc(-c2cc(C(C)C)c(O)cc2O)n1-c1ccc(CN2CCC(C(=O)N(C)[C@H]3CN4CCC[C@@]4(COc4nc(N5CC6CCC(C5)N6)c5cnc(-c6cc(O)cc7ccccc67)c(F)c5n4)C3)CC2)cc1 [Compound 47]	< 100 nM	100 to 1000 nM	
CCNC(=O)c1nnc(-c2cc(C(C)C)c(O)cc2O)n1-c1ccc(CN2CCC(C(=O)N(C)[C@H]3CN4CCC[C@]4(COc4nc(N5CC6CCC(C5)N6)c5cnc(-c6cc(O)cc7ccccc67)c(F)c5n4)C3)CC2)cc1 [Compound 48]		100 to 1000 nM	
Cc1cccc2cccc(-c3ncc4c(N5CC6CCC(C5)N6)nc(OC[C@@H]5CC[C@H](CN6CCN(Cc7ccc8c(c7)CN(C(=O)c7cc(C(C)C)c(O)cc7O)C8)CC6)N5C)nc4c3F)c12 [Compound 71]	100 to 1000 nM	100 to 1000 nM	100 to 1000 nM
CCNC(=O)c1nnc(-c2cc(C(C)C)c(O)cc2O)n1-c1ccc(CN2CCN(C[C@H]3CC[C@@H](COc4nc(N5CC6CCC(C5)N6)c5cnc(-c6cccc7cccc(C)c67)c(F)c5n4)N3C)CC2)cc1 [Compound 72]	100 to 1000 nM	< 100 nM	< 100 nM
CCc1cc(-c2nnc(C(=O)NCC(F)(F)F)n2-c2ccc(CN3CCN(C[C@H]4CC[C@@H](COc5nc(N6CC7CCC(C6)N7)c6cnc(-c7cc(C)cc8ccccc78)c(F)c6n5)N4C)CC3)cc2)c(O)cc1O [Compound 73]	< 100 nM	100 to 1000 nM	100 to 1000 nM
CC(C)c1cc(C(=O)N2Cc3ccc(CN4CCN([C@H]5C[C@@H](COc6nc(N7CC8CNC(C8)C7)c7cnc(-c8cc(O)cc9ccccc89)c(F)c7n6)N(C)C5)CC4)cc3C2)c(O)cc1O (stereo partly shown) [Compound 74]	> 1000 nM	100 to 1000 nM	100 to 1000 nM
C#Cc1cccc2cccc(-c3ncc4c(N5CC6CCC(C5)N6)nc(OCCN5CCN(CCN(CC)C(=O)c6cc(C(C)C)c(O)cc6O)CC5)nc4c3F)c12 [Compound 75]	100 to 1000 nM	> 1000 nM	> 1000 nM
CC(C)c1cc(C(=O)N2Cc3ccc(CN4CCN(C[C@H]5CC[C@@H](COc6nc(N7CC8CCC(C7)N8)c7cnc(-c8cccc9cccc(F)c89)c(F)c7n6)N5C)CC4)cc3C2)c(O)cc1O [Compound 76]	100 to 1000 nM	100 to 1000 nM	100 to 1000 nM
CCNC(=O)c1nnc(-c2cc(C(C)C)c(O)cc2O)n1-c1ccc(CN2CCN([C@H]3C[C@@H](COc4nc(N5CC6CCC(C5)N6)c5cnc(-c6cccc7cccc(F)c67)c(F)c5n4)N(C)C3)CC2)cc1 [Compound 77]	100 to 1000 nM	< 100 nM	100 to 1000 nM
Cc1c(F)cccc1-c1ncc2c(N3CC4CCC(C3)N4)nc(OC[C@@H]3C[C@H](N4CCN(Cc5ccc(-n6c(C(=O)NC(C)C(F)(F)F)nnc6-c6cc(C(C)C)c(O)cc6O)cc5)CC4)CN3C)nc2c1F (stereo partly shown) [Compound 78]	> 1000 nM	100 to 1000 nM	100 to 1000 nM
Cc1c(F)cccc1-c1ncc2c(N3CC4CCC(C3)N4)nc(OC[C@@H]3C[C@H](N4CCN(C(=O)C5CCN(Cc6ccc7c(c6)CN(C(=O)c6cc(C(C)C)c(O)cc6O)C7)CC5)CC4)CN3C)nc2c1F [Compound 84]		100 to 1000 nM	100 to 1000 nM
CC(C)c1cc(C(=O)N2Cc3ccc(CN4CCN(C[C@H]5C[C@@H](COc6nc(N7CC8CCC(C7)N8)c7cnc(-c8cc(O)cc9ccccc89)c(F)c7n6)N(C)C5)CC4)cc3C2)c(O)cc1O [Compound 90]		100 to 1000 nM	100 to 1000 nM
CC(C)c1cc(-c2nnc(C(=O)NC(C)C(F)(F)F)n2-c2ccc(CN3CCN([C@H]4C[C@@H](COc5nc(N6CC7CCC(C6)N7)c6cnc(-c7ccccc7C(F)(F)F)c(F)c6n5)N(C)C4)CC3)cc2)c(O)cc1O (stereo partly shown) [Compound 110]		100 to 1000 nM	100 to 1000 nM
CCc1cc(-c2nnc(C(=O)NCC(F)(F)F)n2-c2ccc(CN3CCN([C@H]4C[C@@H](COc5nc(N6CC7CCC(C6)N7)c6cnc(-c7ccccc7C(F)(F)F)c(F)c6n5)N(C)C4)CC3)cc2)c(O)cc1O [Compound 111]		100 to 1000 nM	100 to 1000 nM
CC(C)c1cc(C(=O)N2Cc3ccc(CN4CCC(C(=O)N5CCN(C[C@H]6C[C@@H](COc7nc(N8CC9CCC(C8)N9)c8cnc(-c9cc(O)cc%10ccccc9%10)c(F)c8n7)N(C)C6)CC5)CC4)cc3C2)c(O)cc1O [Compound 112]		> 1000 nM	> 1000 nM

SMILES	IC50 (KRAS(G12D)/SOS1)	EC50 [1]	EC50 [2]
C#Cc1cccc2cc(O)cc(-c3ncc4c(N5CC6CCC(C5)N6)nc(OC[C@@H]5C[C@H](CN6CCN(Cc7ccc8c(c7)CN(C(=O)c7cc(C(C)C)c(O)cc7O)C8)CC6)CN5C)nc4c3F)c12 [Compound 113]		100 to 1000 nM	100 to 1000 nM
C#Cc1cccc2cc(O)cc(-c3ncc4c(N5CC6CCC(C5)N6)nc(OC[C@@H]5C[C@H](CN6CCN(Cc7ccc(-n8c(C(=O)NCC)nnc8-c8cc(C(C)C)c(O)cc8O)cc7)CC6)CN5C)nc4c3F)c12 [Compound 114]		100 to 1000 nM	100 to 1000 nM
C#Cc1cccc2cc(O)cc(-c3ncc4c(N5CC6CCC(C5)N6)nc(OC[C@@H]5C[C@H](CN6CCN(Cc7ccc(-n8c(C(=O)NC(C)C(F)(F)F)nnc8-c8cc(C(C)C)c(O)cc8O)cc7)CC6)CN5C)nc4c3F)c12 (stereo partly shown) [Compound 115]		100 to 1000 nM	100 to 1000 nM
C#Cc1cccc2cc(O)cc(-c3ncc4c(N5CC6CCC(C5)N6)nc(OC[C@@H]5C[C@H](CN6CCN(Cc7ccc(-n8c(C(=O)NCC(F)(F)F)nnc8-c8cc(CC)c(O)cc8O)cc7)CC6)CN5C)nc4c3F)c12 [Compound 116]		100 to 1000 nM	> 1000 nM
C#Cc1c(F)ccc2cc(O)cc(-c3ncc4c(N5CC6CCC(C5)N6)nc(OCC5(CN6CCC(N7CCN(Cc8ccc9c(c8)CN(C(=O)c8cc(C(C)C)c(OC)cc8OC)C9)CC7)CC6)CC5)nc4c3F)c12 [Compound 196]		< 100 nM	
C#Cc1c(F)ccc2cc(O)cc(-c3ncc4c(N5CC6CCC(C5)N6)nc(OC[C@H]5CCCN5Cc5ccc(-n6c(C(=O)NC(C)C(F)(F)F)nnc6-c6cc(C(C)C)c(O)cc6O)cc5)nc4c3F)c12 (stereo partly shown) [Compound 206]		100 to 1000 nM	
C#Cc1c(F)ccc2cc(O)cc(-c3ncc4c(N5CC6CNC(C6)C5)nc(OCC5(CN6CCC(N7CCN(Cc8ccc9c(c8)CN(C(=O)c8cc(C(C)C)c(O)cc8O)C9)CC7)CC6)CC5)nc4c3F)c12 (stereo not shown) [Compound 207]		100 to 1000 nM	
C#Cc1c(F)ccc2cc(O)cc(-c3ncc4c(N5CC6CCC(C5)N6CC#N)nc(OCC5(CN6CCC(N7CCN(Cc8ccc9c(c8)CN(C(=O)c8cc(C(C)C)c(O)cc8O)C9)CC7)CC6)CC5)nc4c3F)c12 [Compound 208]		< 100 nM	
C#Cc1c(F)ccc2cc(O)cc(-c3ncc4c(N5CC6CCC(C5)N6)nc(OCC5(CN6CCC(N7CCN(Cc8cc9c(cc8F)CN(C(=O)c8cc(C(C)C)c(O)cc8O)C9)CC7)CC6)CC5)nc4c3F)c12 [Compound 209]		< 100 nM	
C#Cc1c(F)ccc2cc(O)cc(-c3nc(OC)c4c(N5CC6CCC(C5)N6)nc(OC5CN(CC6(F)CN(Cc7ccc8c(c7)CN(C(=O)c7cc(C(C)C)c(O)cc7O)C8)C6)C5)nc4c3F)c12 [Compound 210]		100 to 1000 nM	
C#Cc1c(F)ccc2cc(O)cc(-c3ncc4c(N5CC6CCC(C5)N6)nc(OCC5(CN6CCN(CC#Cc7cn(Cc8ncc(C)c(OC)c8C)c8nc(N)nc(Cl)c78)CC6)CC5)nc4c3F)c12 [Compound 211]		< 100 nM	
C#Cc1c(F)ccc2cc(O)cc(-c3ncc4c(N5CC6CCC(C5)N6)nc(OCC5(CN6CC(C7CN(Cc8ccc9c(c8)CN(C(=O)c8cc(C(C)C)c(O)cc8O)C9)C7)C6)CC5)nc4c3F)c12 [Compound 213]		< 100 nM	
C#Cc1cccc2cc(O)cc(-c3ncc4c(N5CC6CCC(C5)N6)nc(OCC5(CN6CCC(N7CCN(Cc8ccc9c(c8)CN(C(=O)c8cc(C(C)C)c(O)cc8O)C9)CC7)CC6)CC5)nc4c3F)c12 [Compound 214]		< 100 nM	
C#Cc1c(F)ccc2cc(O)cc(-c3ncc4c(N5CC6CCC(C5)N6)nc(OCC5(CN6CC(C7CCN(Cc8ccc9c(c8)CN(C(=O)c8cc(C(C)C)c(O)cc8O)C9)CC7)C6)CC5)nc4c3F)c12 [Compound 215]		< 100 nM	
C#Cc1c(F)ccc2cc(O)cc(-c3ncc4c(N5CC6CCC(C5)N6)nc(OCC5(CN6CCC(N7CCC(Oc8ccc9c(n8)CN(C(=O)c8cc(C(C)C)c(O)cc8O)C9)CC7)CC6)CC5)nc4c3F)c12 [Compound 216]		< 100 nM	
C#Cc1c(F)ccc2cc(O)cc(-c3ncc4c(N5CC6CCC(C5)N6)nc(OCC5(CN6CC(CN(C)CCOc7ccc8c(c7)CN(C(=O)c7cc(C(C)C)c(O)cc7O)C8)C6)CC5)nc4c3F)c12 [Compound 218]		100 to 1000 nM	
